Test results reported in patent publication US20110245334A1, “USE OF RACEMATES OF PINOCEMBRIN IN PREPARING MEDICAMENTS FOR TREATING STROKE” (CSPC Zhonggi Pharmaceutical Technology (Shijiazhuang) Co. …, priority 2008, published 2011).

How the values were obtained:
Type in all cases: in vivo, rat
tMCAO rats = test: Infarct volume (TTC), tMCAO time window study; conditions: 2 hours ischemia and 24 hours reperfusion
Procedure: 1. In the test, transient middle cerebral artery occlusion (tMCAO) model of rats was adopted. The reperfusion was performed after focal cerebral ischemia for 2 hours so as to inspect therapeutic time window of pinocembrin after focal cerebral ischemia. The rats were administered by pinocembrin racemate (1 mg/kg, 5 mg/kg, intravenous injection) after reperfusion 1 hour, 4 hours and 6 hours (i.e., ischemia 3 hour, 6 hours and 8 hours). (R)-pinocembrin and (S)-pinocembrin (1 mg/kg, 5 mg/kg, intravenous injection) were administered after reperfusion 1 hour and 4 hours (i.e., ischemia 3 hour and 6 hours). The therapeutic time windows of these drugs in focal cerebral ischemia were assessed by studying their effects to neurological symptom scores, infarct sizes and brain water contents during 24 hours after tMCAO.
2.4 Experimental Grouping and Administration • Sham operation group (intravenous injection of normal saline after 3 hours of ischemia); • Model group (intravenous injection of 50 mg/kg hydroxypropyl β-cyclodextrin after 3 hours of ischemia); • Nimodipine group (1 mg/kg, administered after 3 hours of ischemia); • Pinocembrin racemate group (1 mg/kg, 5 mg/kg, administered after 3, 6 and 8 hours of ischemia); • (R)-pinocembrin group (1 mg/kg, 5 mg/kg, administered after 3 and 6 hours of ischemia); • (S)-pinocembrin group (1 mg/kg, 5 mg/kg, administered after 3 and 6 hours of ischemia).
First administration was performed by intravenous injection, and intraperitoneal injection was carried out once 12 hours later with a dose 1.5 times of that for intravenous injection.
After neurobehavioral scoring, the rats were put to death by decollation and their brain tissues were taken out quickly and put into a refrigerator of −20° C. 10 min later, the brain tissues were moved to an environment of room temperature. After the olfactory bulb, cerebellar and lower brain stem were resected, the brain tissue was cut into six continuous coronal slices with an interval of 2 mm. Then the brain slices were quickly put into 5 ml solution containing 2% TTC and incubated at a constant temperature of 37° C. and in a condition of darkness for 30 min. During the time, the brain slices were tipped every 5 min. […] Every group of brain slices were put in order and photographed. The photographs were processed by an image analysis system and the infarct areas in each slice were calculated. The infarct volume of each slice was calculated via multiplying the infarct area by thickness of slice (2 mm), and the infarct volume was the sum of infarct volumes of all slices. The infarct volume percentage was expressed as: sick-side infarct volume/total sick-side brain volume.

plasma fibrinogen = test: Plasma fibrinogen assay (ELISA) in SHRSP; set-up: Plasma fibrinogen: unit not given here; conditions: SHRSP rats
Procedure: The mixture was centrifuged for 15 min at 3000 rpm and plasma fibrinogen in liquid supernatant was determined by euzymelinked immunosorbent assay (ELISA).

MCAO rats = test: Regional cerebral blood flow (LDF), MCAO
Description: The rats were fixed pronely on the stereotaxic apparatus and subjected to craniotomy. After cleaning for operation visual field, bregma was used as an origin, and a site situated 2 mm behind and 3 mm right to the bregma was selected as a measuring point. The region […] around the site was thinned by a dental drill. In the process, the integrity of dura was maintained and large vessels were avoided. Probe holder was located and fixed.
The rats were supinely fixed on the operating table to carry out MCAO surgery. When a nylon line was inserted in ICA, it was not inserted into intracranial part until LDF value was stable, and blood flow value in 10 min was recorded, and an average value thereof is used as a baseline value of cerebral blood flow. After the MCAO surgery completed, the nylon line was inserted into the intracranial part. When the blood flow value suddenly declined to 20-30% of the baseline value, it was noted that the blood flow in MCA had been blocked. The blood flow value before MCAO in every group was used as a baseline value (100%) of the group. […] LDF value was determined at the same site before the animals was put to death.

plasma ET-1 = test: Plasma ET-1 (radioimmunoassay) in SHRSP; set-up: ET-1 content: unit not given here; conditions: plasma, SHRSP rats
Procedure: 5) Blood of 2 mL was dropped rapidly in a cuvette with 30 μL 7.5% EDTA-2Na and 40 μL aprotinin and mixed. After centrifuged for 5 min at 3000 rpm, plasma ET-1 in liquid supernatant was determined by isotope radioimmunoassay.

For `O=C1CC(c2ccccc2)Oc2cc(O)cc(O)c21` (racemic) [Pinocembrin racemate, pinocembrin racemate], the “Infarct percentage (%)” value (tMCAO rats; 1 mg/kg, 3 h) was 16.59 ± 7.98 %, the “Infarct percentage (%)” value (tMCAO rats; 1 mg/kg, 6 h) was 23.01 ± 11.00% and the “Infarct percentage (%)” value (tMCAO rats; 1 mg/kg, 8 h) was 27.16 ± 13.69%. For the same compound, the “Infarct percentage (%)” value (tMCAO rats; 5 mg/kg, 3 h) was 13.64 ± 6.32 %, the “Infarct percentage (%)” value (tMCAO rats; 5 mg/kg, 6 h) was 15.03 ± 4.07 % and the “Infarct percentage (%)” value (tMCAO rats; 5 mg/kg, 8 h) was 28.32 ± 18.65%. It also gave a Plasma fibrinogen (plasma fibrinogen; 3 mg/kg) of 2.79 ± 0.13, a Plasma fibrinogen (plasma fibrinogen; 10 mg/kg) of 2.62 ± 0.15 and a Plasma fibrinogen (plasma fibrinogen; 30 mg/kg) of 2.56 ± 0.42. The “regional cerebral blood flow (rCBF)” value (MCAO rats; time point 10 min, 3 mg/kg) was 99.91 ± 7.27 % of baseline value, the “regional cerebral blood flow (rCBF)” value (MCAO rats; time point 10 min, 10 mg/kg) was 99.91 ± 7.27 % of baseline value and the “regional cerebral blood flow (rCBF)” value (MCAO rats; time point 10 min, 30 mg/kg) was 99.91 ± 7.27 % of baseline value. For the same compound, the “regional cerebral blood flow (rCBF)” value (MCAO rats; time point 20 min, 3 mg/kg) was 32.03 ± 6.09 % of baseline value, the “regional cerebral blood flow (rCBF)” value (MCAO rats; time point 20 min, 10 mg/kg) was 31.45 ± 5.6 % of baseline value and the “regional cerebral blood flow (rCBF)” value (MCAO rats; time point 20 min, 30 mg/kg) was 37.98 ± 6.87 % of baseline value. For the same compound, the “regional cerebral blood flow (rCBF)” value (MCAO rats; time point 30 min, 3 mg/kg) was 40.76±6.58 % of baseline value, the “regional cerebral blood flow (rCBF)” value (MCAO rats; time point 30 min, 10 mg/kg) was 50.09±7.09 % of baseline value and the “regional cerebral blood flow (rCBF)” value (MCAO rats; time point 30 min, 30 mg/kg) was 53.28±8.03 % of baseline value. For the same compound, the “regional cerebral blood flow (rCBF)” value (MCAO rats; time point 40 min, 3 mg/kg) was 41.59 ± 6.35 % of baseline value, the “regional cerebral blood flow (rCBF)” value (MCAO rats; time point 40 min, 10 mg/kg) was 47.72 ± 6.67 % of baseline value and the “regional cerebral blood flow (rCBF)” value (MCAO rats; time point 40 min, 30 mg/kg) was 54.92 ± 8.58 % of baseline value. The “regional cerebral blood flow (rCBF)” value (MCAO rats; time point 50 min, 3 mg/kg) was 42.81 ± 5.25 % of baseline value, the “regional cerebral blood flow (rCBF)” value (MCAO rats; time point 50 min, 10 mg/kg) was 49.98 ± 7.1 % of baseline value and the “regional cerebral blood flow (rCBF)” value (MCAO rats; time point 50 min, 30 mg/kg) was 55.01 ± 6.25 % of baseline value. The “regional cerebral blood flow (rCBF)” value (MCAO rats; time point 60 min, 3 mg/kg) was 40.8 ± 7.09 % of baseline value, the “regional cerebral blood flow (rCBF)” value (MCAO rats; time point 60 min, 10 mg/kg) was 48.99 ± 8.14 % of baseline value and the “regional cerebral blood flow (rCBF)” value (MCAO rats; time point 60 min, 30 mg/kg) was 57.95 ± 6.09 % of baseline value. For the same compound, the “regional cerebral blood flow (rCBF)” value (MCAO rats; time point 70 min, 3 mg/kg) was 41.69 ± 8.67 % of baseline value, the “regional cerebral blood flow (rCBF)” value (MCAO rats; time point 70 min, 10 mg/kg) was 47.01 ± 8.09 % of baseline value and the “regional cerebral blood flow (rCBF)” value (MCAO rats; time point 70 min, 30 mg/kg) was 53.75 ± 7.09 % of baseline value. The “regional cerebral blood flow (rCBF)” value (MCAO rats; time point 80 min, 3 mg/kg) was 40.75 ± 7.1 % of baseline value, the “regional cerebral blood flow (rCBF)” value (MCAO rats; time point 80 min, 10 mg/kg) was 46.07 ± 9.08 % of baseline value and the “regional cerebral blood flow (rCBF)” value (MCAO rats; time point 80 min, 30 mg/kg) was 54.99 ± 6.67 % of baseline value. The “regional cerebral blood flow (rCBF)” value (MCAO rats; time point 90 min, 3 mg/kg) was 40.99 ± 8.14 % of baseline value, the “regional cerebral blood flow (rCBF)” value (MCAO rats; time point 90 min, 10 mg/kg) was 51.85 ± 8.03 % of baseline value and the “regional cerebral blood flow (rCBF)” value (MCAO rats; time point 90 min, 30 mg/kg) was 55.16 ± 7.1 % of baseline value. The “regional cerebral blood flow (rCBF)” value (MCAO rats; time point 100 min, 3 mg/kg) was 41.16 ± 6.25 % of baseline value, the “regional cerebral blood flow (rCBF)” value (MCAO rats; time point 100 min, 10 mg/kg) was 47.12 ± 8.58 % of baseline value and the “regional cerebral blood flow (rCBF)” value (MCAO rats; time point 100 min, 30 mg/kg) was 56.59 ± 8.14 % of baseline value. The “regional cerebral blood flow (rCBF)” value (MCAO rats; time point 110 min, 3 mg/kg) was 46.59 ± 7.09 % of baseline value, the “regional cerebral blood flow (rCBF)” value (MCAO rats; time point 110 min, 10 mg/kg) was 46.89 ± 6.25 % of baseline value and the “regional cerebral blood flow (rCBF)” value (MCAO rats; time point 110 min, 30 mg/kg) was 57.8 ± 7.27 % of baseline value. The “regional cerebral blood flow (rCBF)” value (MCAO rats; time point 120 min, 3 mg/kg) was 45.8 ± 5.67 % of baseline value, the “regional cerebral blood flow (rCBF)” value (MCAO rats; time point 120 min, 10 mg/kg) was 51.8 ± 6.09 % of baseline value and the “regional cerebral blood flow (rCBF)” value (MCAO rats; time point 120 min, 30 mg/kg) was 64.09 ± 6.09 % of baseline value. For the same compound, the “regional cerebral blood flow (rCBF)” value (MCAO rats; time point 130 min, 3 mg/kg) was 46.99 ± 6.1 % of baseline value, the “regional cerebral blood flow (rCBF)” value (MCAO rats; time point 130 min, 10 mg/kg) was 56.59 ± 9.08 % of baseline value and the “regional cerebral blood flow (rCBF)” value (MCAO rats; time point 130 min, 30 mg/kg) was 61.72 ± 6.58 % of baseline value. For the same compound, the “regional cerebral blood flow (rCBF)” value (MCAO rats; time point 140 min, 3 mg/kg) was 48.01 ± 7.14 % of baseline value, the “regional cerebral blood flow (rCBF)” value (MCAO rats; time point 140 min, 10 mg/kg) was 57.8 ± 8.03 % of baseline value and the “regional cerebral blood flow (rCBF)” value (MCAO rats; time point 140 min, 30 mg/kg) was 64.98 ± 6.35 % of baseline value. For the same compound, the “regional cerebral blood flow (rCBF)” value (MCAO rats; time point 150 min, 3 mg/kg) was 44.07 ± 7.09 % of baseline value, the “regional cerebral blood flow (rCBF)” value (MCAO rats; time point 150 min, 10 mg/kg) was 56.99 ± 8.58 % of baseline value and the “regional cerebral blood flow (rCBF)” value (MCAO rats; time point 150 min, 30 mg/kg) was 63.99 ± 5.25 % of baseline value. The “regional cerebral blood flow (rCBF)” value (MCAO rats; time point 160 min, 3 mg/kg) was 47.85 ± 6.81 % of baseline value, the “regional cerebral blood flow (rCBF)” value (MCAO rats; time point 160 min, 10 mg/kg) was 58.01 ± 7.89 % of baseline value and the “regional cerebral blood flow (rCBF)” value (MCAO rats; time point 160 min, 30 mg/kg) was 57.01 ± 7.09 % of baseline value. The “regional cerebral blood flow (rCBF)” value (MCAO rats; time point 170 min, 3 mg/kg) was 49.12 ± 6.08 % of baseline value, the “regional cerebral blood flow (rCBF)” value (MCAO rats; time point 170 min, 10 mg/kg) was 54.07 ± 6.81 % of baseline value and the “regional cerebral blood flow (rCBF)” value (MCAO rats; time point 170 min, 30 mg/kg) was 65.58 ± 8.67 % of baseline value. The “regional cerebral blood flow (rCBF)” value (MCAO rats; time point 180 min, 3 mg/kg) was 49.89 ± 7.58 % of baseline value, the “regional cerebral blood flow (rCBF)” value (MCAO rats; time point 180 min, 10 mg/kg) was 55.9 ± 6.08 % of baseline value and the “regional cerebral blood flow (rCBF)” value (MCAO rats; time point 180 min, 30 mg/kg) was 62.96 ± 6.81 % of baseline value. It also gave an ET-1 content (plasma ET-1; 3 mg/kg) of 221.4 ± 20.4, an ET-1 content (plasma ET-1; 10 mg/kg) of 209.2 ± 16.7 and an ET-1 content (plasma ET-1; 30 mg/kg) of 182.4 ± 24.2.
